For data set [1] the following is noted: Crystal; DSC.
A short description of data set [2]: Molar enthalpy of transition or fusion. Conditions: Crystal; DSC.

This is an account of results in the NIST ThermoML archive (doi:10.1021/acs.jced.9b00564).

Each structure is given as a SMILES string. ± gives the expanded uncertainty stated by the source.

`O=[N+]([O-])c1ncccc1O` [2-nitropyridin-3-ol]: the Triple point temperature in data set [1] worked out at 342.77 ± 1.2 K. Further, the “Molar enthalpy of transition or fusion” value in data set [2] came to 5.27 ± 0.182 kcal/mol.
